Data published in the NIST ThermoML archive (doi:10.1021/je300972a).
± gives the expanded uncertainty stated by the source.

What was measured:
[1] = refractive index (Na D-line) (dimensionless); conditions: 101.33 kPa, Liquid, Standard Abbe refractometry
[2] = 101 kPa, Liquid; for viscosity: Falling or rolling sphere viscometry; for mass density: Vibrating tube method
[3] = xn = mol fraction of the nth substance listed; conditions: 101 kPa, Liquid, x1 = 1; for viscosity: Falling or rolling sphere viscometry; for mass density: Vibrating tube method
[4] = refractive index (Na D-line) (dimensionless); xn = mol fraction of the nth substance listed; conditions: 101 kPa, Liquid, Standard Abbe refractometry, x1 = 1

CCCC[n+]1ccc(C)cc1.O=S(=O)([N-]S(=O)(=O)C(F)(F)F)C(F)(F)F
Conditions | mass density, [2] [kg/m3] | refractive index, [1] | viscosity, [2] [mPa·s]
293.15 K | 1416.6 ± 1.7 | 1.448 ± 0.0007 | 70.6 ± 1.9
303.15 K | 1407.3 ± 1.7 | 1.4449 ± 0.0007 | 45.2 ± 1.2
313.15 K | 1398.1 ± 1.7 | 1.4419 ± 0.0007 | 30.6 ± 0.8
323.15 K | 1388.8 ± 1.7 | 1.4388 ± 0.0007 | 21.8 ± 0.6
333.15 K | 1379.7 ± 1.7 | 1.4358 ± 0.0007 | 16.1 ± 0.4
343.15 K | 1370.5 ± 1.7 | 1.4328 ± 0.0007 | 12.3 ± 0.3
353.15 K | 1361.5 ± 1.7 | 1.4298 ± 0.0007 | 9.8 ± 0.3

CCCC[n+]1ccccc1.F[B-](F)(F)F [1-butylpyridinium tetrafluoroborate]
Conditions | mass density, [2] [kg/m3] | refractive index, [1] | viscosity, [2] [mPa·s]
293.15 K | 1217.1 ± 1.6 | 1.447 ± 0.0007 | 227.1 ± 12
303.15 K | 1210.3 ± 1.6 | 1.4444 ± 0.0007 | 123.6 ± 4.6
313.15 K | 1203.5 ± 1.6 | 1.4418 ± 0.0007 | 74.8 ± 2.1
323.15 K | 1196.7 ± 1.6 | 1.4392 ± 0.0007 | 48.1 ± 1.2
333.15 K | 1189.9 ± 1.6 | 1.4366 ± 0.0007 | 33 ± 0.8
343.15 K | 1183.2 ± 1.6 | 1.4341 ± 0.0007 | 23.8 ± 0.6
353.15 K | 1176.5 ± 1.6 | 1.4315 ± 0.0007 | 17.7 ± 0.5

CCCC[n+]1ccccc1.F[B-](F)(F)F [1-butylpyridinium tetrafluoroborate] + CCCC[n+]1ccc(C)cc1.O=S(=O)([N-]S(=O)(=O)C(F)(F)F)C(F)(F)F
Conditions | mass density, [3] [kg/m3] | refractive index, [4] | viscosity, [3] [mPa·s]
293.15 K | 1217.1 ± 1.6 | 1.447 ± 0.0007 | 227.1 ± 12
303.15 K | 1210.3 ± 1.6 | 1.4444 ± 0.0007 | 123.6 ± 4.6
313.15 K | 1203.5 ± 1.6 | 1.4418 ± 0.0007 | 74.8 ± 2.1
323.15 K | 1196.7 ± 1.6 | 1.4392 ± 0.0007 | 48.1 ± 1.2
333.15 K | 1189.9 ± 1.6 | 1.4366 ± 0.0007 | 33 ± 0.8
343.15 K | 1183.2 ± 1.6 | 1.4341 ± 0.0007 | 23.8 ± 0.6
353.15 K | 1176.5 ± 1.6 | 1.4315 ± 0.0007 | 17.7 ± 0.5
